According to patent US20050203290A1, “Crystalline form of sucralose, and method for producing it” (priority 2003, published 2005):

Key:
[1] = accelerated aging test (shelf life of crystalline sucralose); type: physicochemical
Experimental: Shelf life of crystalline sucralose is commonly estimated by performing an accelerated aging test. In this test the crystals are maintained in a controlled atmosphere at 50° C. (122° F.), and sampled periodically. Each sample is dissolved in water and the pH of a 10% solution is tracked to determine the elapsed time at which the pH drops by one unit, indicating a slight sucralose decomposition. Crystals made by traditional methods are considered stable when such decomposition is not indicated until at least 3 days in this test. This is considered equivalent to a shelf life under ambient conditions of about 8 years.

[2] = particle size analysis by light scattering (Coulter LS100Q); type: physicochemical; conditions: Isopar G isoparaffin fluid as dispersing medium
Experimental: Particle size analysis of the product is performed using a Coulter LS100Q Particle Size Analyzer, available from Coulter Corporation of Miami, Florida. The analyzer operates by light scattering, using Isopar™ G isoparaffin fluid, available from ExxonMobil Chemical of Houston, Tex., as the dispersing medium. The sucralose product crystals have a particle size distribution such that 90 wt. % of the sample has a particle size less than 62 μm, while 10 wt. % has a particle size less than from about 4 μm, with a mean of 30 μm.

elapsed time until pH drop under accelerated conditions ([1]; 50° C., dried at the preferred temperature, moisture levels typical of old crystals) [days]	stability in accelerated aging test: elapsed time until pH of a 10% solution drops by one unit ([1]; crystals kept at 50° C. (122° F.) in controlled atmosphere, Example product dried at about 60° F., moisture about 0.5 wt. %)	shelf life under typical ambient storage conditions corresponding to the accelerated aging result ([1]; extrapolated from accelerated aging test at 50° C.)	mean particle size [2] [μm]	particle size below which 10 wt. % of the sample lies [2] [μm]	particle size below which 90 wt. % of the sample lies [2]	SMILES
3	–	–	–	–	–	OC[C@H]1O[C@H](O[C@]2(CCl)O[C@H](CCl)[C@@H](O)[C@@H]2O)[C@H](O)[C@@H](O)[C@H]1Cl [old crystals, 4,1′,6′-trichloro-4,1′,6′-trideoxygalactosucrose, reference compound]
–	at least 3 days	about 8 years	30	< 4	less than 62 μm	OC[C@H]1O[C@H](O[C@]2(CCl)O[C@H](CCl)[C@@H](O)[C@@H]2O)[C@H](O)[C@@H](O)[C@H]1Cl [sucralose product crystals, 4,1′,6′-trichloro-4,1′,6′-trideoxygalactosucrose]
